# Patent US7183415B2, “Quinoline compound” (Takeda Pharmaceutical Company Limited, priority 2001, dated 2007)
row,melting point,Structure (SMILES)
1,237 °C (dec.),"Cc1ccc(-c2ccc(C(=O)Nc3ccc4cc(CN5CCCCCC5)cnc4c3)cn2)cc1 [Example 33, N-[3-(1-azepanylmethyl)-7-quinolinyl]-6-(4-methylphenyl)nicotinamide]"
2,136 to 137 °C,"O=C(Nc1ccc2cc(CN3CCCC3)cnc2c1F)c1ccc(-c2ccccc2)cc1F [Example 77, 3-fluoro-N-[8-fluoro-3-(1-pyrrolidinylmethyl)-7-quinolinyl][1,1′-biphenyl]-4-carboxamide]"
3,205 °C (dec.),"O=C(Nc1ccc2cc(CN3CCCCCC3)cnc2c1)c1ccc(-c2ccccc2)cc1 [Example 31, N-[3-(1-azepanylmethyl)-7-quinolinyl][1,1′-biphenyl]-4-carboxamide]"
4,208 °C,"O=C(Nc1ccc2cc(CN3CCCC3)cnc2c1F)c1ccc(-c2ccc(Cl)cc2)cc1F [Example 279, 4′-chloro-3-fluoro-N-[8-fluoro-3-(1-pyrrolidinylmethyl)-7-quinolinyl][1,1′-biphenyl]-4-carboxamide]"
5,189 to 190 °C,"CSc1ccc(-c2ccc(C(=O)Nc3ccc4cc(CN5CCCC5)cnc4c3C)c(F)c2)cc1 [Example 144, 3-fluoro-N-[8-methyl-3-(1-pyrrolidinylmethyl)-7-quinolinyl]-4′-(methylsulfanyl)[1,1′-biphenyl]-4-carboxamide]"
6,217 to 218 °C,"Cc1c(NC(=O)c2ccc(-c3cc4ccccc4o3)cc2)ccc2cc(CN3CCCC3)cnc12 (hydrate or solvate) [Example 106, 4-(1-benzofuran-2-yl)-N-[8-methyl-3-(1-pyrrolidinylmethyl)-7-quinolinyl]benzamide]"
7,216 °C,"Cc1cc2cc(CN3CCCC3)cnc2cc1NC(=O)c1ccc(-c2ccc(Cl)s2)cc1 [Example 220, 4-(5-chlorothien-2-yl)-N-[6-methyl-3-(1-pyrrolidinylmethyl)-7-quinolinyl]benzamide]"
8,200 to 202 °C,"O=C(Nc1cc2ncc(CN3CCCC3)cc2cc1F)c1ccc(-c2ccc(F)cc2)cc1F [Example 60, 3,4′-difluoro-N-[6-fluoro-3-(1-pyrrolidinylmethyl)-7-quinolinyl][1,1′-biphenyl]-4-carboxamide]"
9,187 °C,"Cc1cc2cc(CN3CCCC3)cnc2cc1NC(=O)c1ccc(-c2ccsc2)cc1 [Example 223, N-[6-methyl-3-(1-pyrrolidinylmethyl)-7-quinolinyl]-4-thien-3-ylbenzamide]"
10,187 to 188 °C,"Cc1c(NC(=O)c2ccc(-c3ccc4c(c3)OCCO4)cc2)ccc2cc(CN3CCCC3)cnc12 (hydrate or solvate) [Example 115, 4-(2,3-dihydro-1,4-benzodioxin-6-yl)-N-[8-methyl-3-(1-pyrrolidinylmethyl)-7-quinolinyl]benzamide]"
11,160 to 162 °C,"Cc1c(NC(=O)c2ccc(-c3ccc(Cl)s3)cc2F)ccc2cc(CN3CCCC3)cnc12 (hydrate or solvate) [Example 143, 4-(5-chloro-2-thienyl)-2-fluoro-N-[8-methyl-3-(1-pyrrolidinylmethyl)-7-quinolinyl]benzamide]"
12,185 to 188 °C,"Cc1cc2cc(CN3CCCCC3)cnc2cc1NC(=O)c1ccc(-c2ccc(F)cc2)cc1 [Example 250, 4′-fluoro-N-[6-methyl-3-(1-piperidinylmethyl)-7-quinolinyl][1,1′-biphenyl]-4-carboxamide]"
13,209 °C,"Cc1ccc(-c2ccc(C(=O)Nc3ccc4cc(CN5CCCCCC5)cnc4c3)cc2)cc1 [Example 28, N-[3-(1-azepanylmethyl)-7-quinolinyl]-4′-methyl[1,1′-biphenyl]-4-carboxamide]"
14,166 to 167 °C,"Cc1c(NC(=O)c2ccc(-c3ccc(Cl)s3)cc2F)ccc2cc(CN3CCCCCC3)cnc12 (hydrate or solvate) [Example 186, N-[3-(1-azepanylmethyl)-8-methyl-7-quinolinyl]-4-(5-chloro-2-thienyl)-2-fluorobenzamide]"

# Second part, the compound before the results:
row,Structure (SMILES),melting point
1,"Cc1c(NC(=O)c2ccc(-c3ccc4c(c3)OCO4)cc2F)ccc2cc(CN3CCCC3)cnc12 (hydrate or solvate) [Example 141, 4-(1,3-benzodioxol-5-yl)-2-fluoro-N-[8-methyl-3-(1-pyrrolidinylmethyl)-7-quinolinyl]benzamide]",181 to 182 °C
2,"Cc1cc2cc(CN3CCOCC3)cnc2cc1NC(=O)c1ccc(-c2ccc(F)cc2)cc1 [Example 252, 4′-fluoro-N-[6-methyl-3-(4-morpholinylmethyl)-7-quinolinyl][1,1′-biphenyl]-4-carboxamide]",153 to 158 °C
3,"Cc1c(NC(=O)c2ccc(-c3ccccc3F)cc2F)ccc2cc(CN3CCCC3)cnc12 [Example 148, 2′,3-difluoro-N-[8-methyl-3-(1-pyrrolidinylmethyl)-7-quinolinyl][1,1′-biphenyl]-4-carboxamide]",159 to 160 °C
4,"CNC(=O)CCC1CCN(Cc2cnc3cc(NC(=O)c4ccc(-c5ccc(F)cc5)cc4)c(C)cc3c2)CC1 [Example 254, 4′-fluoro-N-[6-methyl-3-({4-[3-(methylamino)-3-oxopropyl]-1-piperidinyl}methyl)-7-quinolinyl][1,1′-biphenyl]-4-carboxamide]",207 to 211 °C
5,"COc1c(NC(=O)c2ccc(-c3ccc(F)cc3)cc2)ccc2cc(CN3CCCC3)cnc12 [Example 81, 4′-fluoro-N-[8-methoxy-3-(1-pyrrolidinylmethyl)-7-quinolinyl][1,1′-biphenyl]-4-carboxamide]",142 to 144 °C
6,"Cc1ccc(-c2ccc(C(=O)Nc3ccc4cc(CN5CCCC5)cnc4c3C)c(F)c2)cc1 [Example 135, 3-fluoro-4′-methyl-N-[8-methyl-3-(1-pyrrolidinylmethyl)-7-quinolinyl][1,1′-biphenyl]-4-carboxamide]",180 to 182 °C
7,"COc1cc2cc(CN3CCCC3)cnc2cc1NC(=O)c1ccc(-c2ccc(Cl)cc2)cc1 [Example 23, 4′-chloro-N-[6-methoxy-3-(1-pyrrolidinylmethyl)-7-quinolinyl][1,1′-biphenyl]-4-carboxamide]",271 °C (dec.)
8,"CCN(CC)C(=O)C1CCN(Cc2cnc3cc(NC(=O)c4ccc(-c5ccc(F)cc5)cc4)c(C)cc3c2)CC1 [Example 272, N,N-diethyl-1-[(7-{[(4′-fluoro-1,1′-biphenyl-4-yl)carbonyl]amino}-6-methyl-3-quinolinyl)methyl]piperidine-4-carboxamide]",203 °C
9,"Cc1cc(C(=O)Nc2ccc3cc(CN4CCCC4)cnc3c2C)ccc1-c1ccc(F)cc1 [Example 160, 4′-fluoro-2-methyl-N-[8-methyl-3-(1-pyrrolidinylmethyl)-7-quinolinyl][1,1′-biphenyl]-4-carboxamide]",200 to 202 °C
10,"Cc1c(NC(=O)c2ccc(-c3cc4ccccc4s3)cc2)ccc2cc(CN3CCCC3)cnc12 (hydrate or solvate) [Example 120, 4-(1-benzothien-2-yl)-N-[8-methyl-3-(1-pyrrolidinylmethyl)-7-quinolinyl]benzamide]",217 to 218 °C
11,"Cc1c(NC(=O)c2ccc(-c3ccc(Cl)s3)cc2)ccc2cc(CN3CCCCCC3)cnc12 (hydrate or solvate) [Example 181, N-[3-(1-azepanylmethyl)-8-methyl-7-quinolinyl]-4-(5-chloro-2-thienyl)benzamide]",186 to 187 °C
